Here are results for 26 molecules from PubChem BioAssay (NCI).

Common to all, as to assay: NCI-60 cell line screen, 48 h
Experiment [1] has as its system NCI-H460 lung.
In experiment [2] the test system is OVCAR-4 ovarian.
In experiment [3] the test system is A549 NSCLC.
In experiment [4] the test system is 786-0 renal.
For experiment [5], the system named is SR leukemia.
Experiment [6] deals with K-562 leukemia.
The subject of experiment [7] is UACC-257 melanoma.
For experiment [8], the system named is M14 melanoma.
The test system of experiment [9] is MDA-MB-435.
For experiment [10], the system named is HOP-92 NSCLC.

The structures appear in SMILES notation. Where “and” joins values, the source holds several entries; their conditions need not be identical. Equal entries are not always repeated.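 Cultured in 96-well plates, cells were exposed to test compound for 48 hours across five concentrations. GI50 is the concentration that inhibits growth by half. TGI denotes the concentration required for complete inhibition of growth.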

Consider `COC(=O)C(Cc1nc2ccccc2[nH]c1=O)C(=O)C(=O)Nc1ccc([N+](=O)[O-])cc1[N+](=O)[O-]` (configuration not stated), for which the TGI is 49.2 µM in [1]; 64.1 µM in experiment [2]; over 100 µM in experiment [3]; 32 µM in experiment [4]; over 100 µM in [5]; over 100 µM in experiment [6]. Moreover, the values for the TGI in experiment [7] and in [8] were 36.9 µM and 32.4 µM, respectively.

Take `O=Cc1ccc(-c2ccc(-c3nc4ccccc4o3)cc2)o1`: the GI50 in [1] was 39.6 µM; in experiment [2], over 100 µM; in experiment [3], 58.9 µM; in [4] it was 24.4 µM; in experiment [6], 23.6 µM; in experiment [9] it was 33.1 µM. Moreover, the GI50 in experiment [7] was 92.3 µM; in [8], 44.1 µM. Moreover, the TGI in experiment [1] was over 100 µM; in experiment [2], over 100 µM; in [3] it was over 100 µM; in experiment [4] it was 92.8 µM; in experiment [6] it was over 100 µM; in [9], over 100 µM. The TGI in experiment [7] and in [8] was over 100 µM in each case.

In the case of `CCOc1cccc2ccc[n+](CC)c12`, the TGI in experiment [1], in [10], in experiment [2], in experiment [3], in [4] and in experiment [6] was over 100 µM throughout. For the same molecule, the TGI in experiment [7] and in experiment [8] was over 100 µM in each case.

With `Cc1cc(Cl)ccc1NC(=O)C(=O)C(C(=O)c1ccc2ccccc2c1)C1OC(=O)c2ccccc21` (configuration not stated), the TGI is 60.8 µM in [1]; 34.5 µM in [10]; 25.5 µM in experiment [2]; 94.5 µM in experiment [3]; 22.1 µM in experiment [4]; 33.8 µM in [6]. The results for the TGI in experiment [7] and in [8] were 47.8 µM and 34.3 µM, respectively.

On to `O=C1OC(O)C(Oc2c(Cl)cccc2Cl)=C1Cl` (configuration not stated), for which the TGI was determined as 29.2 µM in [1]; 41.9 µM in experiment [10]; 34.7 µM in experiment [3]; 32.2 µM in [4]; 54.1 µM in [5]; 48 µM in experiment [6]. Moreover, the figures for the TGI in experiment [7] and in [8] were 42.1 µM and 33.2 µM, respectively.

Consider `CCOC(=N)CC(=O)c1ccccc1`, for which the TGI in experiment [10], in experiment [2], in experiment [3], in experiment [4], in experiment [5] and in [6] was over 100 µM throughout. In addition, the TGI in experiment [7] and in experiment [8] was over 100 µM throughout.

For the molecule `CC(=O)[CH-]C(=O)c1ccccc1.CC(=O)[CH-]C(=O)c1ccccc1.CCOCC[O-].CCOCC[O-].[Ti+4]`, the GI50 in experiment [1] is 18.8 µM; in [2] it was 31.9 µM; in experiment [3], 28.7 µM; in [4], 21.2 µM; in experiment [6] it was 23 µM; in experiment [7], 33.8 µM. Besides, in [8], the GI50 was 16.7 µM. Further, the TGI is 43.4 µM in experiment [1]; over 100 µM in experiment [2]; 90.5 µM in experiment [3]; 74.2 µM in experiment [4]; 55.8 µM in experiment [6]; over 100 µM in experiment [7]. Further, in experiment [8], the TGI was found to be 37.1 µM.

In the case of `COc1ccc2c(c1)CC[C@H](O)/C2=C/c1cc(OC)c(OC)c(OC)c1`, the GI50 is 0.107 µM in experiment [1]; 16.3 µM in [10]; 0.952 µM in experiment [2]; 0.245 µM in [3]; 0.156 µM in experiment [4]; 0.0546 µM in [5]. Further, the GI50 in experiment [6] is 0.0492 µM; in [8] it was 0.101 µM. Besides, the TGI was over 36.8 µM in experiment [1]; over 100 µM in [10]; over 100 µM in experiment [2]; over 100 µM in [3]; over 100 µM in [4]; over 100 µM in experiment [5]. The TGI in [6] and in [8] was over 100 µM each time.

Consider `COc1nc(N)nc2c1ncn2C1OC(CO)C(O)C1O` (configuration not stated), for which the GI50 in experiment [1] was 1650 µM; in experiment [10], 2640 µM; in [2] it was over 5000 µM; in experiment [3], 701 µM; in experiment [4], over 5000 µM; in experiment [6] it was over 5000 µM. For the same molecule, the GI50 in experiment [9] and in experiment [8] was over 5000 µM each time. For the same molecule, the TGI in [1], in experiment [10], in experiment [2], in experiment [3], in [4] and in [6] was over 5000 µM each time. For the same molecule, the TGI in [9], in [7] and in experiment [8] was over 5000 µM in each case.

With `CC(C)(C)C(=O)OCC1CCC(n2cnc3c(=O)[nH]c(N)nc32)O1` (configuration not stated), the TGI in experiment [1], in [10], in experiment [2], in experiment [3], in experiment [4] and in experiment [6] was over 100 µM throughout. Further, the TGI in [7] and in [8] was over 100 µM in each case.

Regarding `CC(C)(C)C1CCC2c3c([nH]c4ccccc34)C3C(=O)N(c4ccccc4)C(=O)C3C2C1` (configuration not stated), the TGI was 12.5 µM in experiment [1]; 5.36 µM in [2]; 46 µM in [3]; 26 µM in experiment [4]; 15.8 µM in [6]; 19.7 µM in experiment [8].

For `COC(=O)Cc1ccc(Oc2cnc3cc(F)c(F)cc3n2)cc1`, the GI50 is over 100 µM in [1]; over 100 µM in experiment [10]; 58.3 µM in experiment [2]; over 100 µM in [3]; over 100 µM in experiment [4]; 31.1 µM in experiment [6]. In addition, the GI50 in experiment [9] and in experiment [7] was over 100 µM throughout. The TGI was over 100 µM in [1]; over 100 µM in [10]; over 100 µM in [2]; over 100 µM in experiment [3]; over 100 µM in experiment [4]; 94.8 µM in experiment [6]. In addition, the TGI in experiment [9] and in [7] was over 100 µM throughout.

In the case of `Cc1cc(N(CCC#N)S(C)(=O)=O)ccc1C=Nc1ccc(C(=O)NN2C(=O)/C(=C/c3ccc(N(CCC#N)CCC#N)cc3C)N=C2c2cc([N+](=O)[O-])ccc2Cl)cc1`, the TGI in [1], in [10], in [2], in experiment [3], in experiment [4] and in [6] was over 100 µM in each case. Further, the TGI in experiment [7] and in [8] was over 100 µM in each case.

Regarding `C=C[C@@]1(O)CCCC2=C(C(=O)OCC)CC[C@]21C`, the TGI in experiment [1], in experiment [10], in [3], in experiment [4], in experiment [5] and in experiment [6] was over 100 µM throughout. Moreover, the TGI in [7] and in experiment [8] was over 100 µM throughout.

`CCc1cccc(CC)c1NC(=O)C1=C(C)NC(C)=C(C(=O)Nc2c(CC)cccc2CC)C1c1ccc([N+](=O)[O-])cc1`: the TGI in [1] is 45 µM; in [10], 39.6 µM; in experiment [2], 33.8 µM; in [3], over 100 µM; in experiment [4] it was 29.2 µM; in [6], 93.5 µM. The values for the TGI in experiment [7] and in [8] were 53.1 µM and 42.5 µM, respectively.

Take `N#C/C(=C1\SC(N=Nc2ccccc2)C(=O)N1c1ccccc1)c1nc2ccccc2[nH]1` (configuration not stated): the TGI in [1], in experiment [10], in experiment [2], in experiment [3], in [4] and in [6] was over 100 µM each time. Besides, the TGI in [7] and in experiment [8] was over 100 µM in each case.

Turning to `O=C1C(Cl)C(c2ccccc2O)N1n1cnc2ccccc2c1=O` (configuration not stated), the TGI in experiment [1], in experiment [2], in experiment [3], in experiment [4], in experiment [5] and in experiment [6] was over 100 µM in each case. Moreover, the TGI in experiment [7] and in [8] was over 100 µM in each case.

Take `COC(=O)C1[C@H](c2cc(OC)c(OC)c(OC)c2)OC(=O)C1(C(=O)OC)C(=O)c1ccc2c(c1)OCO2` (some centres not stated): the TGI in experiment [1], in experiment [10], in experiment [2], in experiment [3], in [4] and in experiment [6] was over 100 µM in each case. For the same molecule, the TGI in [7] and in [8] was over 100 µM each time.

For `CO[C@H](C(=O)[C@@H](O)[C@@H](C)O)[C@@H]1Cc2cc3cc(OC4CC(OC5CC(O)C(O)C(C)O5)C(O)C(C)O4)c(C)c(O)c3c(O)c2C(=O)[C@H]1OC1CC(OC2CC(OC3CC(C)(O)C(O)C(C)O3)C(O)C(C)O2)C(O)C(C)O1` (some centres not stated), the GI50 was 0.0183 µg/mL and 0.015 µg/mL in experiment [1]; 0.0278 µg/mL and 0.016 µg/mL in experiment [10]; 0.0389 µg/mL and 0.0236 µg/mL in experiment [2]; 0.027 µg/mL and 0.0212 µg/mL in experiment [3]; 0.0255 µg/mL and 0.0152 µg/mL and 713 nM in [4]; 0.0253 µg/mL and 0.017 µg/mL in [6]. The GI50 in experiment [9] is 0.0222 µg/mL and 0.0246 µg/mL and 1.25 µM; in [7], 0.0259 µg/mL and 0.0361 µg/mL.

As to `COc1cc(CNc2ccccc2C(=O)N2CCN(C(=O)c3cc(-c4cc(OC)c(OC)c(OC)c4)n4nc(-c5ccccc5)cc4n3)CC2)cc(OC)c1OC`, the GI50 in experiment [1] was 3.32 µM; in [2], 4.37 µM; in [3] it was 3.55 µM; in experiment [4], 4.49 µM; in [5] it was 0.581 µM; in [6], 1.56 µM. Moreover, the GI50 in experiment [7] was 4.97 µM; in [8], 4.05 µM. Moreover, the TGI in experiment [1], in [2], in experiment [3], in experiment [4], in experiment [5] and in experiment [6] was over 100 µM in each case. Further, the TGI in experiment [7] and in [8] was over 100 µM in each case.

As for `C/C=C/CC(C)[C@@H](O)[C@H](NC)C(=O)O` (some centres not stated), the TGI in experiment [1], in experiment [10], in experiment [2], in [3], in experiment [4] and in experiment [6] was over 100 µM in each case. The TGI in experiment [7] and in experiment [8] was over 100 µM each time.

Turning to `CC1=NN(C(=O)c2ccc([N+](=O)[O-])cc2)C(=O)C1N=Nc1ccccc1C(=O)O` (configuration not stated), the TGI in [1] is over 100 µM; in experiment [10] it was 97.2 µM; in experiment [3], over 100 µM; in [4] it was over 100 µM; in experiment [6], over 100 µM; in experiment [7], over 100 µM.

Take `O=[N+]([O-])C1Cc2ccccc2OC1c1ccccc1` (configuration not stated): the TGI in experiment [10] was over 100 µM; in [2], over 100 µM; in experiment [3], over 100 µM; in experiment [4] it was over 100 µM; in experiment [5], 66.6 µM; in experiment [6] it was over 100 µM. Besides, the TGI in [7] and in [8] was over 100 µM each time.

Consider `CC(=O)OC1CC2C(C)(C)C(=O)C=C[C@]2(C)C2CCC3(C)C(=CC(=O)C3c3ccoc3)[C@]12C` (some centres not stated), for which the TGI in [1] was 34.1 µM; in experiment [10], 45.6 µM; in experiment [2], 50.5 µM; in [3] it was 41 µM; in [4], 31.1 µM; in [6] it was over 100 µM. In addition, the TGI in experiment [7] was 48.2 µM; in experiment [8], 61.7 µM.

As for `Nc1ccn(C2OC(COC(=O)C34CC5CC(CC(C5)C3)C4)C(O)C2O)c(=O)n1` (configuration not stated), the TGI in [1] was over 40.8 µM; in experiment [10], over 100 µM; in [2], over 100 µM; in experiment [3] it was over 100 µM; in experiment [4] it was over 100 µM; in experiment [6], over 100 µM. In addition, the TGI in experiment [9], in experiment [7] and in [8] was over 100 µM in each case.

For `O=c1[nH]c2cc(Cl)ccc2nc1/C(=N\O)C(O)c1ccc([N+](=O)[O-])cc1` (configuration not stated), the TGI in experiment [1], in experiment [2], in experiment [3], in [4], in experiment [5] and in [6] was over 100 µM in each case. Besides, the TGI in experiment [7] and in experiment [8] was over 100 µM in each case.
